Reference: patent US6525001B1, “Substituted pyrimidine and pyridine herbicides” (Mid-American Commercialization Corporation, priority 1997, dated 2003)

Experiments:
Type in all cases: in vivo
[1] = test system: smallflower flatsedge (Cyperus difformis); test: Test B flood test
Summary of the method: (§1)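 Plants were grown to the 2-leaf stage before treatment with test chemical, then held in a greenhouse for twelve to sixteen days. Injury was visually rated against untreated controls on a 0–10 scale, where 0 is no effect and 10 is complete control.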

[2] = test system: rice (Oryza sativa); test: Test B flood test
Summary of the method: as §1

[3] = test system: duck salad (Heteranthera limosa); test: Test B flood test
Summary of the method: as §1

[4] = test system: bamyardgrass (Echinochloa crus-galli); test: Test B flood test
Summary of the method: as §1

[5] = test system: purple nutsedge (Cyperus rotundus); test: Test B pre-/postemergence; parameters: key: 0 is no effect; 10 is complete control
Text: (§2) Seeds of bedstraw (Galium aparine), blackgrass (Alopecurus myosuroides), broadleaf signalgrass (Brachiaria decumbens), cocklebur (Xanthium strumarium), corn (Zea mays), crabgrass (Digitaria sanguinalis), giant foxtail (Setaria faberii), lambsquarters (Chenopodium album), momingglory (Ipomoea hederacea), pigweed (Amaranthus retroflexus), rape (Brassica napus), soybean (Glycine max), sugar beet (Beta vulgaris), velvetleaf (Abutilon theophrasti), wheat (Triticum aestivum), wild oat (Avena fatua) and purple nutsedge (Cyperus rotundus) tubers were planted and treated preemergence with test chemicals formulated in a non-phytotoxic solvent mixture which included a surfactant.
(§3) At the same time, these crop and weed species were also treated with postemergence applications of test chemicals formulated in the same manner. Plants ranged in height from 2 to 18 cm (1- to 4-leaf stage) for postemergence treatments. Plant species in the flood test consisted of rice (Oryza sativa), smallflower flatsedge (Cyperus difformis), duck salad (Heteranthera limosa) and bamyardgrass (Echinochloa crus-galli) grown to the 2-leaf stage for testing. Treated plants and controls were maintained in a greenhouse for twelve to sixteen days, after which all species were compared to controls and visually evaluated. Plant response ratings, summarized in Table B, are based on a scale of 0 to 10 where 0 is no effect and 10 is complete control. A dash (−) response means no test result.

[6] = test system: giant foxtail (Setaria faberii); test: Test B pre-/postemergence; parameters: key: 0 is no effect; 10 is complete control
Text: as §2, §3

[7] = test system: wild oat (Avena fatua); test: Test B pre-/postemergence; parameters: key: 0 is no effect; 10 is complete control
Text: as §2, §3

[8] = test system: blackgrass (Alopecurus myosuroides); test: Test B pre-/postemergence; parameters: key: 0 is no effect; 10 is complete control
Text: as §2, §3

[9] = test system: velvetleaf (Abutilon theophrasti); test: Test B pre-/postemergence; parameters: key: 0 is no effect; 10 is complete control
Text: as §2, §3

[10] = test system: momingglory (Ipomoea hederacea); test: Test B pre-/postemergence; parameters: key: 0 is no effect; 10 is complete control
Text: as §2, §3

[11] = test system: broadleaf signalgrass (Brachiaria decumbens); test: Test B pre-/postemergence; parameters: key: 0 is no effect; 10 is complete control
Text: as §2, §3

[12] = test system: rape (Brassica napus); test: Test B pre-/postemergence; parameters: key: 0 is no effect; 10 is complete control
Text: as §2, §3

[13] = test system: sugar beet (Beta vulgaris); test: Test B pre-/postemergence; parameters: key: 0 is no effect; 10 is complete control
Text: as §2, §3

[14] = test system: soybean (Glycine max); test: Test B pre-/postemergence; parameters: key: 0 is no effect; 10 is complete control
Text: as §2, §3

[15] = test system: bedstraw (Galium aparine); test: Test B pre-/postemergence; parameters: key: 0 is no effect; 10 is complete control
Text: as §2, §3

[16] = test system: crabgrass (Digitaria sanguinalis); test: Test B pre-/postemergence; parameters: key: 0 is no effect; 10 is complete control
Text: as §2, §3

[17] = test system: corn (Zea mays); test: Test B pre-/postemergence; parameters: key: 0 is no effect; 10 is complete control
Text: as §2, §3

[18] = test system: pigweed (Amaranthus retroflexus); test: Test B pre-/postemergence; parameters: key: 0 is no effect; 10 is complete control
Text: as §2, §3

[19] = test system: cocklebur (Xanthium strumarium); test: Test B pre-/postemergence; parameters: key: 0 is no effect; 10 is complete control
Text: as §2, §3

[20] = test system: wheat (Triticum aestivum); test: Test B pre-/postemergence; parameters: key: 0 is no effect; 10 is complete control
Text: as §2, §3

[21] = Rate 62 g/ha, Postemergence (flood test)
[22] = Rate 125 g/ha, Postemergence, flood test
[23] = Rate 250 g/ha, Postemergence (flood test species)

Cc1cnc(-c2ccc(C(F)(F)F)cc2)nc1C(C#N)c1cccc(C(F)(F)F)c1 (racemic) [Compound 17]
9: Plant response rating, Blackgrass ([8]; Rate 250 g/ha, Preemergence) | Plant response rating, B. signalgrass ([11]; Rate 250 g/ha, Preemergence) | Plant response rating, Sugarbeets ([13]; Rate 62 g/ha, Postemergence) | Plant response rating, Sugarbeets ([13]; Rate 250 g/ha, Preemergence) | Plant response rating, Bedstraw ([15]; Rate 125 g/ha, Postemergence) | Plant response rating, Bedstraw ([15]; Rate 250 g/ha, Postemergence) | Plant response rating, Crabgrass ([16]; Rate 250 g/ha, Preemergence) | Plant response rating, Redroot pigweed ([18]; Rate 62 g/ha, Postemergence) | Redroot pigweed plant response rating ([18]; Rate 125 g/ha, Preemergence)
5: Plant response rating, S. Flatsedge [1, 23] | Plant response rating, Ducksalad [3, 22] | Plant response rating, Ducksalad [3, 23] | Giant foxtail plant response rating ([6]; Rate 62 g/ha, Preemergence) | Plant response rating, Giant foxtail ([6]; Rate 250 g/ha, Postemergence) | Wild oats plant response rating ([7]; Rate 125 g/ha, Preemergence) | Plant response rating, Wild oats ([7]; Rate 250 g/ha, Postemergence) | Plant response rating, B. signalgrass ([11]; Rate 125 g/ha, Postemergence) | Plant response rating, Bedstraw ([15]; Rate 250 g/ha, Preemergence)
4: Plant response rating, Rice [2, 21] | Plant response rating, Rice [2, 22] | Plant response rating, Barnyardgrass [4, 21] | Plant response rating, Barnyardgrass [4, 22] | Plant response rating, Giant foxtail ([6]; Rate 125 g/ha, Postemergence) | Plant response rating, Wild oats ([7]; Rate 125 g/ha, Postemergence) | Plant response rating, Velvetleaf ([9]; Rate 125 g/ha, Postemergence) | Plant response rating, B. signalgrass ([11]; Rate 62 g/ha, Postemergence) | Plant response rating, Crabgrass ([16]; Rate 62 g/ha, Postemergence) | Plant response rating, Crabgrass ([16]; Rate 125 g/ha, Postemergence) | Plant response rating, Crabgrass ([16]; Rate 250 g/ha, Postemergence) | Redroot pigweed plant response rating ([18]; Rate 62 g/ha, Preemergence) | Plant response rating, Cocklebur ([19]; Rate 62 g/ha, Postemergence) | Plant response rating, Wheat ([20]; Rate 250 g/ha, Postemergence)
1: Velvetleaf plant response rating ([9]; Rate 125 g/ha, Preemergence) | Plant response rating, Velvetleaf ([9]; Rate 250 g/ha, Preemergence) | Morningglory plant response rating ([10]; Rate 125 g/ha, Preemergence) | Sugarbeets plant response rating ([13]; Rate 62 g/ha, Preemergence) | Bedstraw plant response rating ([15]; Rate 62 g/ha, Preemergence) | Plant response rating, Corn ([17]; Rate 250 g/ha, Preemergence) | Wheat plant response rating ([20]; Rate 125 g/ha, Preemergence)
6: Plant response rating, Rice [2, 23] | Plant response rating, Barnyardgrass [4, 23] | Plant response rating, Blackgrass ([8]; Rate 125 g/ha, Postemergence) | Blackgrass plant response rating ([8]; Rate 125 g/ha, Preemergence)
0: Plant response rating, Nutsedge ([5]; Rate 62 g/ha, Postemergence) | Nutsedge plant response rating ([5]; Rate 62 g/ha, Preemergence) | Plant response rating, Nutsedge ([5]; Rate 125 g/ha, Postemergence) | Nutsedge plant response rating ([5]; Rate 125 g/ha, Preemergence) | Plant response rating, Nutsedge ([5]; Rate 250 g/ha, Postemergence) | Plant response rating, Nutsedge ([5]; Rate 250 g/ha, Preemergence) | Velvetleaf plant response rating ([9]; Rate 62 g/ha, Preemergence) | Morningglory plant response rating ([10]; Rate 62 g/ha, Preemergence) | Rape plant response rating ([12]; Rate 62 g/ha, Preemergence) | Soybean plant response rating ([14]; Rate 62 g/ha, Preemergence) | Soybean plant response rating ([14]; Rate 125 g/ha, Preemergence) | Plant response rating, Soybean ([14]; Rate 250 g/ha, Preemergence) | Corn plant response rating ([17]; Rate 62 g/ha, Preemergence) | Corn plant response rating ([17]; Rate 125 g/ha, Preemergence) | Cocklebur plant response rating ([19]; Rate 62 g/ha, Preemergence) | Cocklebur plant response rating ([19]; Rate 125 g/ha, Preemergence) | Plant response rating, Cocklebur ([19]; Rate 250 g/ha, Preemergence) | Wheat plant response rating ([20]; Rate 62 g/ha, Preemergence)
2: Plant response rating, S. Flatsedge [1, 21] | Plant response rating, Giant foxtail ([6]; Rate 62 g/ha, Postemergence) | Wild oats plant response rating ([7]; Rate 62 g/ha, Preemergence) | Blackgrass plant response rating ([8]; Rate 62 g/ha, Preemergence) | Plant response rating, Velvetleaf ([9]; Rate 62 g/ha, Postemergence) | Plant response rating, Morningglory ([10]; Rate 250 g/ha, Preemergence) | Rape plant response rating ([12]; Rate 125 g/ha, Preemergence) | Plant response rating, Corn ([17]; Rate 62 g/ha, Postemergence) | Plant response rating, Corn ([17]; Rate 125 g/ha, Postemergence)
3: Plant response rating, S. Flatsedge [1, 22] | Plant response rating, Ducksalad [3, 21] | Plant response rating, Wild oats ([7]; Rate 62 g/ha, Postemergence) | Plant response rating, Blackgrass ([8]; Rate 62 g/ha, Postemergence) | B. signalgrass plant response rating ([11]; Rate 62 g/ha, Preemergence) | Plant response rating, Rape ([12]; Rate 250 g/ha, Preemergence) | Plant response rating, Soybean ([14]; Rate 62 g/ha, Postemergence) | Plant response rating, Soybean ([14]; Rate 125 g/ha, Postemergence) | Bedstraw plant response rating ([15]; Rate 125 g/ha, Preemergence) | Crabgrass plant response rating ([16]; Rate 62 g/ha, Preemergence) | Plant response rating, Corn ([17]; Rate 250 g/ha, Postemergence) | Plant response rating, Wheat ([20]; Rate 62 g/ha, Postemergence) | Plant response rating, Wheat ([20]; Rate 125 g/ha, Postemergence) | Plant response rating, Wheat ([20]; Rate 250 g/ha, Preemergence)
10: Giant foxtail plant response rating ([6]; Rate 125 g/ha, Preemergence) | Plant response rating, Giant foxtail ([6]; Rate 250 g/ha, Preemergence) | Plant response rating, Sugarbeets ([13]; Rate 125 g/ha, Postemergence) | Plant response rating, Sugarbeets ([13]; Rate 250 g/ha, Postemergence) | Plant response rating, Redroot pigweed ([18]; Rate 125 g/ha, Postemergence) | Plant response rating, Redroot pigweed ([18]; Rate 250 g/ha, Postemergence) | Plant response rating, Redroot pigweed ([18]; Rate 250 g/ha, Preemergence)
8: Plant response rating, Wild oats ([7]; Rate 250 g/ha, Preemergence) | Plant response rating, Morningglory ([10]; Rate 125 g/ha, Postemergence) | Plant response rating, Morningglory ([10]; Rate 250 g/ha, Postemergence) | Plant response rating, Rape ([12]; Rate 125 g/ha, Postemergence) | Plant response rating, Rape ([12]; Rate 250 g/ha, Postemergence) | Sugarbeets plant response rating ([13]; Rate 125 g/ha, Preemergence) | Plant response rating, Soybean ([14]; Rate 250 g/ha, Postemergence) | Plant response rating, Bedstraw ([15]; Rate 62 g/ha, Postemergence) | Crabgrass plant response rating ([16]; Rate 125 g/ha, Preemergence) | Plant response rating, Cocklebur ([19]; Rate 125 g/ha, Postemergence) | Plant response rating, Cocklebur ([19]; Rate 250 g/ha, Postemergence)
7: Plant response rating, Blackgrass ([8]; Rate 250 g/ha, Postemergence) | Plant response rating, Velvetleaf ([9]; Rate 250 g/ha, Postemergence) | Plant response rating, Morningglory ([10]; Rate 62 g/ha, Postemergence) | B. signalgrass plant response rating ([11]; Rate 125 g/ha, Preemergence) | Plant response rating, B. signalgrass ([11]; Rate 250 g/ha, Postemergence) | Plant response rating, Rape ([12]; Rate 62 g/ha, Postemergence)
